Source: patent US20110053773A1, “METHODS OF IMPROVING NUTRITIONAL VALUE OF PLANTS” (UNIVERSITY OF TENNESSEE RESEARCH FOUNDATION, priority 2009, published 2011)

Legend:
kale 'Red Russian' = assay: Content analysis of kale: protein, amino acids, fiber, fatty acids, minerals (Example 4, Tables 12-14); type: in vivo; settings: 28 DA-A; for Alanine, Percent Increase over the Untreated Check (on a % dry matter basis) / Aspartic acid, Percent Increase over the Untreated Check (on a % dry matter basis) / Cysteine, Percent Increase over the Untreated Check (on a % dry matter basis) / Glutamic acid, Percent Increase over the Untreated Check (on a % dry matter basis) / Glycine, Percent Increase over the Untreated Check (on a % dry matter basis) / Iso-leucine, Percent Increase over the Untreated Check (on a % dry matter basis) / Leucine, Percent Increase over the Untreated Check (on a % dry matter basis) / Lysine, Percent Increase over the Untreated Check (on a % dry matter basis) / Methionine, Percent Increase over the Untreated Check (on a % dry matter basis) / Proline, Percent Increase over the Untreated Check (on a % dry matter basis) / Threonine, Percent Increase over the Untreated Check (on a % dry matter basis) / Total Amino acids, Percent Increase over the Untreated Check (on a % dry matter basis) / Total Protein, Percent Increase over the Untreated Check (on a % dry matter basis) / Valine, Percent Increase over the Untreated Check (on a % dry matter basis): chlorothalonil ###
Procedure: Greenhouse and laboratory studies were conducted to ascertain the tolerance and nutritional quality differences following postemergence applications of the insecticide chlorpyrifos, the fungicide chlorothalonil, the PGRs mepiquat-chloride and paclobutrazol, and the safeners napthalic anhydride and isoxadifen-ethyl on kale ‘Red Russian’ and basil ‘Genovese’. Visual injury was rated based on general phytotoxicity, chlorosis, and visual stunting and each measurement was based on a percent scale from 0 to 100 where 0 equals no visual response and 100 equals complete plant death. Kale and basil were both harvested approximately 4 weeks after treatments and plants were pooled over replicates for content analysis of crude protein, crude amino acid content, acid detergent fiber, neutral detergent fiber, total fatty acids, and/or key mineral content (including Na, Ca, P, Mg, K, Fe, Mn, Zn, and Cu). In addition, the amounts of key individual amino acids (aspartic acid, threonine, glutamic acid, proline, glycine, cysteine, valine, leucine, isoleucine, methionine, and lysine) and composite classifications of fatty acid (saturated fatty acids, monounsaturated fatty acids, polyunsaturated fatty acids) were also analyzed from these sub-samples for kale (Tables 10-14).

basil 'Genovese' = assay: Visual injury of basil after insecticide, fungicide, PGRs, safeners (Example 4)
Method in brief: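 Plants received postemergence sprays of one insecticide, one fungicide, two PGRs or two safeners in the greenhouse. About 4 weeks later they were harvested, and replicates were pooled for laboratory content analysis. Injury was rated visually on a 0–100% scale.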

[1] = first-listed rate g ai/ha: chlropyrifos ###, paclobutrazol 3.2, mepiquat-chloride 12, + NIS 0.3 % v/v
[2] = rates g ai/ha: chlropyrifos 1120, chlorothalonil 2630, paclobutrazol 3.23, mepiquat-chloride 12.3, + NIS 0.25 % v/v
[3] = rates g ai/ha: chlropyrifos 3370, chlorothalonil 7900, paclobutrazol 9.7, mepiquat-chloride 37, + NIS 0.25 % v/v
[4] = second-listed rate g ai/ha: chlropyrifos ###, paclobutrazol 9.7, mepiquat-chloride 37, + NIS 0.3 % v/v
[5] = 7 DA-A, rates g ai/ha: chlropyrifos 1120, chlorothalonil 2630, paclobutrazol 3.23, mepiquat-chloride 12.3, Isoxadifen 8, Napthalic anhydride 264, + NIS 0.25 % v/v
[6] = 7 DA-A, rates g ai/ha: chlropyrifos 3370, chlorothalonil 7900, paclobutrazol 9.7, mepiquat-chloride 37, Isoxadifen 16, Napthalic anhydride 527, + NIS 0.25 % v/v
[7] = 14 DA-A, rates g ai/ha: chlropyrifos 1120, chlorothalonil 2630, paclobutrazol 3.23, mepiquat-chloride 12.3, Isoxadifen 8, Napthalic anhydride 264, + NIS 0.25 % v/v

For N#Cc1c(Cl)c(Cl)c(Cl)c(C#N)c1Cl [chlorothalonil], the “Alanine, Percent Increase over the Untreated Check (on a % dry matter basis)” value (kale 'Red Russian'; [1]) was 3 % check, the “Aspartic acid, Percent Increase over the Untreated Check (on a % dry matter basis)” value (kale 'Red Russian'; [1]) was 2 % check and the “Cysteine, Percent Increase over the Untreated Check (on a % dry matter basis)” value (kale 'Red Russian'; [1]) was −6 % check. For the same molecule, the “Glutamic acid, Percent Increase over the Untreated Check (on a % dry matter basis)” value (kale 'Red Russian'; [1]) was 5 % check, the “Glycine, Percent Increase over the Untreated Check (on a % dry matter basis)” value (kale 'Red Russian'; [1]) was 0 % check and the “Iso-leucine, Percent Increase over the Untreated Check (on a % dry matter basis)” value (kale 'Red Russian'; [1]) was 4 % check. For the same molecule, the “Leucine, Percent Increase over the Untreated Check (on a % dry matter basis)” value (kale 'Red Russian'; [1]) was 4 % check, the “Lysine, Percent Increase over the Untreated Check (on a % dry matter basis)” value (kale 'Red Russian'; [1]) was 5 % check and the “Methionine, Percent Increase over the Untreated Check (on a % dry matter basis)” value (kale 'Red Russian'; [1]) was 2 % check. The “Proline, Percent Increase over the Untreated Check (on a % dry matter basis)” value (kale 'Red Russian'; [1]) was 6 % check, the “Threonine, Percent Increase over the Untreated Check (on a % dry matter basis)” value (kale 'Red Russian'; [1]) was 3 % check and the “Total Amino acids, Percent Increase over the Untreated Check (on a % dry matter basis)” value (kale 'Red Russian'; [1]) was 3 % check. The “Total Protein, Percent Increase over the Untreated Check (on a % dry matter basis)” value (kale 'Red Russian'; [1]) was 1 % check, the “Valine, Percent Increase over the Untreated Check (on a % dry matter basis)” value (kale 'Red Russian'; [1]) was 4 % check and the “ADF, Percent Increase Over the Untreated Check (on a % dry matter basis)” value (kale 'Red Russian'; [2]) was 9 % check. For the same molecule, the “Calcium, Percent Increase Over the Untreated Check (on a % dry matter basis)” value (kale 'Red Russian'; [2]) was −6 % check, the “Copper, Percent Increase Over the Untreated Check (on a % dry matter basis)” value (kale 'Red Russian'; [2]) was 6 % check and the “Iron, Percent Increase Over the Untreated Check (on a % dry matter basis)” value (kale 'Red Russian'; [2]) was −1 % check. The “Magnesium, Percent Increase Over the Untreated Check (on a % dry matter basis)” value (kale 'Red Russian'; [2]) was −3 % check, the “Manganese, Percent Increase Over the Untreated Check (on a % dry matter basis)” value (kale 'Red Russian'; [2]) was 3 % check and the “NDF, Percent Increase Over the Untreated Check (on a % dry matter basis)” value (kale 'Red Russian'; [2]) was −8 % check. For the same molecule, the “Phosphorous, Percent Increase Over the Untreated Check (on a % dry matter basis)” value (kale 'Red Russian'; [2]) was 0 % check, the “Potassium, Percent Increase Over the Untreated Check (on a % dry matter basis)” value (kale 'Red Russian'; [2]) was −9 % check and the “Sodium, Percent Increase Over the Untreated Check (on a % dry matter basis)” value (kale 'Red Russian'; [2]) was 4 % check. The “Zinc, Percent Increase Over the Untreated Check (on a % dry matter basis)” value (kale 'Red Russian'; [2]) was −4 % check, the “ADF, Percent Increase Over the Untreated Check (on a % dry matter basis)” value (kale 'Red Russian'; [3]) was 0 % check and the “Calcium, Percent Increase Over the Untreated Check (on a % dry matter basis)” value (kale 'Red Russian'; [3]) was −1 % check. The “Copper, Percent Increase Over the Untreated Check (on a % dry matter basis)” value (kale 'Red Russian'; [3]) was 6 % check, the “Iron, Percent Increase Over the Untreated Check (on a % dry matter basis)” value (kale 'Red Russian'; [3]) was −3 % check and the “Magnesium, Percent Increase Over the Untreated Check (on a % dry matter basis)” value (kale 'Red Russian'; [3]) was −3 % check. For the same molecule, the “Manganese, Percent Increase Over the Untreated Check (on a % dry matter basis)” value (kale 'Red Russian'; [3]) was 4 % check, the “NDF, Percent Increase Over the Untreated Check (on a % dry matter basis)” value (kale 'Red Russian'; [3]) was −5 % check and the “Phosphorous, Percent Increase Over the Untreated Check (on a % dry matter basis)” value (kale 'Red Russian'; [3]) was −3 % check. The “Potassium, Percent Increase Over the Untreated Check (on a % dry matter basis)” value (kale 'Red Russian'; [3]) was −3 % check, the “Sodium, Percent Increase Over the Untreated Check (on a % dry matter basis)” value (kale 'Red Russian'; [3]) was 23 % check and the “Zinc, Percent Increase Over the Untreated Check (on a % dry matter basis)” value (kale 'Red Russian'; [3]) was −3 % check. The “Alanine, Percent Increase over the Untreated Check (on a % dry matter basis)” value (kale 'Red Russian'; [4]) was −5 % check, the “Aspartic acid, Percent Increase over the Untreated Check (on a % dry matter basis)” value (kale 'Red Russian'; [4]) was −4 % check and the “Cysteine, Percent Increase over the Untreated Check (on a % dry matter basis)” value (kale 'Red Russian'; [4]) was −6 % check. For the same molecule, the “Glutamic acid, Percent Increase over the Untreated Check (on a % dry matter basis)” value (kale 'Red Russian'; [4]) was −5 % check, the “Glycine, Percent Increase over the Untreated Check (on a % dry matter basis)” value (kale 'Red Russian'; [4]) was −7 % check and the “Iso-leucine, Percent Increase over the Untreated Check (on a % dry matter basis)” value (kale 'Red Russian'; [4]) was −2 % check. For the same molecule, the “Leucine, Percent Increase over the Untreated Check (on a % dry matter basis)” value (kale 'Red Russian'; [4]) was −1 % check, the “Lysine, Percent Increase over the Untreated Check (on a % dry matter basis)” value (kale 'Red Russian'; [4]) was −3 % check and the “Methionine, Percent Increase over the Untreated Check (on a % dry matter basis)” value (kale 'Red Russian'; [4]) was −2 % check. For the same molecule, the “Proline, Percent Increase over the Untreated Check (on a % dry matter basis)” value (kale 'Red Russian'; [4]) was −3 % check, the “Threonine, Percent Increase over the Untreated Check (on a % dry matter basis)” value (kale 'Red Russian'; [4]) was −1 % check and the “Total Amino acids, Percent Increase over the Untreated Check (on a % dry matter basis)” value (kale 'Red Russian'; [4]) was −4 % check. For the same molecule, the “Total Protein, Percent Increase over the Untreated Check (on a % dry matter basis)” value (kale 'Red Russian'; [4]) was −3 % check, the “Valine, Percent Increase over the Untreated Check (on a % dry matter basis)” value (kale 'Red Russian'; [4]) was −3 % check and the “Phytotoxicity Chlorosis” value (basil 'Genovese'; [5]) was 5%. The “Phytotoxicity General” value (basil 'Genovese'; [5]) was 5%, the “Phytotoxicity Stunting” value (basil 'Genovese'; [5]) was 5% and the “Phytotoxicity Chlorosis” value (basil 'Genovese'; [6]) was 15%. The “Phytotoxicity General” value (basil 'Genovese'; [6]) was 3%, the “Phytotoxicity Stunting” value (basil 'Genovese'; [6]) was 5% and the “Phytotoxicity Chlorosis” value (basil 'Genovese'; [7]) was 5%. The “Phytotoxicity General” value (basil 'Genovese'; [7]) was 0%.
